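Each compound was tested at five concentrations against cells in 96-well plates for 48 hours. TGI: concentration producing complete growth inhibition.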
What was measured:
Experiment in all cases: growth of human tumour cells (NCI), 48 h
K-562 leukemia = system: K-562 leukemia
SNB-19 CNS = system: SNB-19 CNS
SK-MEL-5 melanoma = system: SK-MEL-5 melanoma
EKVX NSCLC = system: EKVX NSCLC
KM12 colon = system: KM12 colon
SF-268 CNS = system: SF-268 CNS
MOLT-4 leukemia = system: MOLT-4 leukemia
NCI-H23 lung = system: NCI-H23 lung
HCT-15 colon = system: HCT-15 colon
RPMI-8226 leukemia = system: RPMI-8226 leukemia
OVCAR-4 ovarian = system: OVCAR-4 ovarian
NCI-H460 lung = system: NCI-H460 lung
DU-145 prostate = system: DU-145 prostate
CCRF-CEM leukemia = system: CCRF-CEM leukemia
MCF7 breast = system: MCF7 breast
NCI/ADR-RES ovarian = system: NCI/ADR-RES ovarian
HT29 colon = system: HT29 colon
U251 CNS = system: U251 CNS
UACC-257 melanoma = system: UACC-257 melanoma
NCI-H522 lung = system: NCI-H522 lung
IGROV1 ovarian = system: IGROV1 ovarian
HOP-92 NSCLC = system: HOP-92 NSCLC
MDA-MB-435 = system: MDA-MB-435
MALME-3M melanoma = system: MALME-3M melanoma
T-47D breast = system: T-47D breast
HL-60(TB) leukemia = system: HL-60(TB) leukemia
MDA-N = system: MDA-N
RXF 393 renal = system: RXF 393 renal
OVCAR-8 ovarian = system: OVCAR-8 ovarian
BT-549 breast = system: BT-549 breast
ACHN renal = system: ACHN renal
MDA-MB-231 breast = system: MDA-MB-231 breast
SF-539 CNS = system: SF-539 CNS
SF-295 CNS = system: SF-295 CNS
SN12C renal = system: SN12C renal
HCT-116 colon = system: HCT-116 colon
OVCAR-5 ovarian = system: OVCAR-5 ovarian
OVCAR-3 ovarian = system: OVCAR-3 ovarian
M14 melanoma = system: M14 melanoma
PC-3 prostate = system: PC-3 prostate
786-0 renal = system: 786-0 renal
TK-10 renal = system: TK-10 renal
A549 NSCLC = system: A549 NSCLC
NCI-H226 lung = system: NCI-H226 lung
SR leukemia = system: SR leukemia
SK-MEL-28 melanoma = system: SK-MEL-28 melanoma
COLO 205 colon = system: COLO 205 colon
HOP-62 NSCLC = system: HOP-62 NSCLC
HCC-2998 colon = system: HCC-2998 colon
SW-620 colon = system: SW-620 colon
UACC-62 melanoma = system: UACC-62 melanoma
LOX IMVI melanoma = system: LOX IMVI melanoma
SNB-75 CNS = system: SNB-75 CNS
SK-MEL-2 melanoma = system: SK-MEL-2 melanoma
SK-OV-3 ovarian = system: SK-OV-3 ovarian
A498 renal = system: A498 renal
CAKI-1 renal = system: CAKI-1 renal
UO-31 renal = system: UO-31 renal

Measured: TGI

CC(=O)/C=C/CCC(=O)/C=C/C(=O)OC(CCC(=O)/C=C/C(=O)O)CC(C)=O (stereo not given)
not listed: LOX IMVI melanoma | SNB-75 CNS | SK-MEL-2 melanoma | SK-OV-3 ovarian | A498 renal | CAKI-1 renal | UO-31 renal
> 100 µM: all other assays above

CCOP(=O)(/C=C/n1ccc(=O)[nH]c1=O)OCC
not listed: HOP-92 NSCLC | MALME-3M melanoma | SR leukemia | HCC-2998 colon | UO-31 renal
> 100 µM: all other assays above

C=C1[C@@H](OC(C)=O)[C@H]2[C@@H](OC(C)=O)[C@@](C)(OC(C)=O)C[C@]2(OC(C)=O)C(=O)[C@@H](C)/C=C/C(C)(C)C(=O)C[C@H]1OC(C)=O
not listed: SF-268 CNS | NCI-H460 lung | HL-60(TB) leukemia | BT-549 breast | SR leukemia | SW-620 colon | A498 renal
> 100 µM: all other assays above
